Tests used:
KHK-C = target: T1, KHK-C (Homo sapiens, UniProt P50053); assay: In vitro KHK kinase inhibitory activity test (ADP-Glo); type: biochemical; conditions: 1 nM KHK-C, 100 µM ATP, 200 µM D-Fructose
T1 construct: purchased Origene TP323488
T1 sequence (P50053 1-298): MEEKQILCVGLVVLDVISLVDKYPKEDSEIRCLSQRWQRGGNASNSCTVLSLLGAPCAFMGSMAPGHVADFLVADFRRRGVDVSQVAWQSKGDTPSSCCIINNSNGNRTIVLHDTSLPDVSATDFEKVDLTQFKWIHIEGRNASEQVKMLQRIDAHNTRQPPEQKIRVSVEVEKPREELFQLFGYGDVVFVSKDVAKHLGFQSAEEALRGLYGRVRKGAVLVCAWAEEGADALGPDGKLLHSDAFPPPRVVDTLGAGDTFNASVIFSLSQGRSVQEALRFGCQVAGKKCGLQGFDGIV
Experimental: 1) DMSO was used to prepare the compound of the present invention and a control drug to 10 mM, which was used as a testing stock solution.
2) The compound stock solution of the present invention was diluted 10-fold to 1 mM, and then the compound of the present invention was diluted in gradient 3-fold to 11 concentrations, with the highest concentration of 1 mM. The control drug stock solution was diluted 100-fold to 0.1 mM, and then the control drug was diluted in gradient 3-fold to 11 concentrations, with the highest concentration of 0.1 mM.
3) 0.1 µL of the diluted compound of the present invention and 0.1 µL of the diluted control drug were transferred by using Echo550 to a 384-well plate respectively, with two repeated wells set for each concentration, and centrifuged at 1,000 rpm for 1 min.
1) 5 µL of KHK-C kinase working fluid was added to a 384-well plate, centrifuged at 1,000 rpm for 1 min, and then incubated at a room temperature of 25° C. for 15 min. […]
3) After the reaction was completed, fluorescence value LUM was read on Envision.
Inhibition (% inh) was calculated by using the following equation: […]
IC50 was calculated by curve fitting with software.

[1] = Stability investigation of crystal forms A, B, C, D and the amorphous form of the compound of formula (1) (related substances by HPLC, moisture, XRD, DSC); type: physicochemical
Experimental: 2.1 Investigation conditions for the crystal form A of the compound of formula (1): • placed at 105° C. for 5 days, opened, and sampled for testing on day 5; • placed at 60° C. for 10 days, opened/closed, and sampled for testing on day 10; • placed at 25° C. and RH 92.5% for 10 days, opened/closed, and sampled for testing on day 10; • placed at 40° C. and RH 75% for one month, opened/closed, and sampled for testing on the last day of the month; and • under illumination, employing a closed way (polyethylene bag + composite film bag) to meet illumination requirements, and sampled for testing.
Illumination requirements: ICH Q1B Stability Testing: Photostability Testing of New Drug Substances and Products.
Determination of related substances: determined according to 0512 HPLC in General Principle (Volume IV) of Chinese Pharmacopoeia (2015 Version).
Moisture determination: determined according to 2 Coulometric Titration in the First Method (Karl Fischer titration) of 0832 Moisture Determination Method in General Principle (Volume IV) of Chinese Pharmacopoeia (2015 Version).
XRD determination: determined according to the Second Method-Powder X-ray Diffraction Method of 0451 X-ray Diffraction Method in General Principle (Volume IV) of Chinese Pharmacopoeia (2015 Version).
DSC determination: precisely weighing an appropriate amount of sample in a Standard disc, covering the Standard disc, placing the Standard disc in a sample disc position in a DSC furnace, placing a blank disc of the same type in a reference position, and carrying out the following temperature rise program:
1. Equilibrate at 25° C.; and
2.1 Investigation conditions for the crystal form B of the compound of formula (1): • placed at 105° C. for 5 days, opened, and sampled for testing on day 5; • placed at 60° C. for 10 days, opened/closed, and sampled for testing on day 10; • placed at 25° C. and RH 92.5% for 10 days, opened/closed, and sampled for testing on day 10; • placed at 40° C. and RH 75% for one month, opened/closed, and sampled for testing on the last day of the month; and • under illumination, employing a closed way (polyethylene bag + composite film bag) to meet illumination requirements, and sampled for testing.
2.1 Investigation conditions for the crystal form C of the compound of formula (1): • placed at 105° C. for 5 days, opened, and sampled for testing on day 5; • placed at 60° C. for 10 days, opened/closed, and sampled for testing on day 10; • placed at 25° C. and RH 92.5% for 10 days, opened/closed, and sampled for testing on day 10; • placed at 40° C. and RH 75% for one month, opened/closed, and sampled for testing on the last day of the month; and • under illumination, employing a closed way (polyethylene bag + composite film bag) to meet illumination requirements, and sampled for testing.
1. Equilibrate at 25° C.; and 2. Ramp 10° C. to 200° C.
2.1 Investigation conditions for the crystal form D of the compound of formula (1): • placed at 105° C. for 5 days, opened, and sampled for testing on day 5; • placed at 60° C. for 10 days, opened/closed, and sampled for testing on day 10; • placed at 25° C. and RH 92.5% for 10 days, opened/closed, and sampled for testing on day 10; • placed at 40° C. and RH 75% for one month, opened/closed, and sampled for testing on the last day of the month; and • under illumination, employing a closed way (polyethylene bag + composite film bag) to meet illumination requirements, and sampled for testing.
2.1 Investigation conditions for the amorphous form of the compound of formula (1): • placed at 60° C. for 10 days, opened/closed, and sampled for testing on day 10; • placed at 25° C. and RH 92.5% for 10 days, opened/closed, and sampled for testing on day 10; • placed at 40° C. and RH 75% for one month, opened/closed, and sampled for testing on the last day of the month; and • under illumination, employing a closed way (polyethylene bag + composite film bag) to meet illumination requirements, and sampled for testing.

[2] = 25° C., RH 92.5%, closed, 10 days
[3] = 25° C., RH 92.5%, opened, 10 days

Work on `C[C@H]1CCN1c1nc(N2C[C@@H]3[C@@H](CC(=O)O)[C@@H]3C2)c2c(n1)C(F)(F)CC2` [Compound of formula (1), 2-((1R,5S,6R)-3-(7,7-difluoro-2-((S)-2-methylazetidin-1-yl)-6,7-dihydro-5H-cyclopenta[d]pyrimidin-4-yl)-3-azabicyclo[3.1.0]hexan-6-yl)acetic acid] yielded an IC50 (KHK-C) of 0.82 nM.

For `C[C@H]1CCN1c1nc(N2C[C@@H]3[C@@H](CC(=O)O)[C@@H]3C2)c2c(n1)C(F)(F)CC2` [Crystal form C, 2-((1R,5S,6R)-3-(7,7-difluoro-2-((S)-2-methylazetidin-1-yl)-6,7-dihydro-5H-cyclopenta[d]pyrimidin-4-yl)-3-azabicyclo[3.1.0]hexan-6-yl)acetic acid], the DSC ([1]; 0 day) was 172.44 °C, the Moisture % ([1]; 0 day) was 0.24% and the Total related % ([1]; 0 day) was 1.25%. The Trait ([1]; 0 day) was “Off-white power”, the DSC [1, 2] was 172.36 °C and the Moisture % [1, 2] was 0.09%. For the same compound, the Total related % [1, 2] was 1.06%, the Trait [1, 2] was “Off-white power” and the XRD [1, 2] was “Same as day 0”. It also gave a DSC [1, 3] of 172.35 °C, a Moisture % [1, 3] of 0.11% and a Total related % [1, 3] of 1.07%. For the same compound, the Trait [1, 3] was “Off-white power”, the XRD [1, 3] was “Same as day 0” and the DSC ([1]; 40° C., RH 75%, closed, 1 M) was 172.36 °C. The Moisture % ([1]; 40° C., RH 75%, closed, 1 M) was 0.19%, the Total related % ([1]; 40° C., RH 75%, closed, 1 M) was 1.30% and the Trait ([1]; 40° C., RH 75%, closed, 1 M) was “Off-white power”. For the same compound, the XRD ([1]; 40° C., RH 75%, closed, 1 M) was “Same as day 0”, the DSC ([1]; 40° C., RH 75%, opened, 1 M) was 172.35 °C and the Moisture % ([1]; 40° C., RH 75%, opened, 1 M) was 0.13%. The Total related % ([1]; 40° C., RH 75%, opened, 1 M) was 1.31%, the Trait ([1]; 40° C., RH 75%, opened, 1 M) was “Off-white power” and the XRD ([1]; 40° C., RH 75%, opened, 1 M) was “Same as day 0”. For the same compound, the DSC ([1]; 60° C., closed, 10 days) was 172.21 °C, the Moisture % ([1]; 60° C., closed, 10 days) was 0.08% and the Total related % ([1]; 60° C., closed, 10 days) was 2.20%. The Trait ([1]; 60° C., closed, 10 days) was “Off-white power”, the XRD ([1]; 60° C., closed, 10 days) was “Same as day 0” and the DSC ([1]; 60° C., opened, 10 days) was 172.21 °C. For the same compound, the Moisture % ([1]; 60° C., opened, 10 days) was 0.08%, the Total related % ([1]; 60° C., opened, 10 days) was 2.09% and the Trait ([1]; 60° C., opened, 10 days) was “Off-white power”. The XRD ([1]; 60° C., opened, 10 days) was “Same as day 0”, the “Total related substances, change” value ([1]; 105° C. for 5 days and 60° C. for 10 days) was “slightly increased” and the DSC ([1]; 105° C., opened, 5 days) was 171.85 °C. The Moisture % ([1]; 105° C., opened, 5 days) was 0.24%, the Total related % ([1]; 105° C., opened, 5 days) was 1.77% and the Trait ([1]; 105° C., opened, 5 days) was “Off-white power”. The XRD ([1]; 105° C., opened, 5 days) was “Same as day 0”, the DSC ([1]; Avoid light for 18 days) was 172.42 °C and the Moisture % ([1]; Avoid light for 18 days) was 0.13%. For the same compound, the Total related % ([1]; Avoid light for 18 days) was 1.25%, the Trait ([1]; Avoid light for 18 days) was “Off-white power” and the XRD ([1]; Avoid light for 18 days) was “Same as day 0”. The “Related substances, content, moisture, and XRD stability” value ([1]; opened/closed, 25° C. and RH 92.5% for 10 days, 40° C. and RH 75% for one month) was “good”.

Compound `C[C@H]1CCN1c1nc(N2C[C@@H]3[C@@H](CC(=O)O)[C@@H]3C2)c2c(n1)C(F)(F)CC2` [Crystal form D, 2-((1R,5S,6R)-3-(7,7-difluoro-2-((S)-2-methylazetidin-1-yl)-6,7-dihydro-5H-cyclopenta[d]pyrimidin-4-yl)-3-azabicyclo[3.1.0]hexan-6-yl)acetic acid] has a DSC ([1]; 0 day) of 167.79 °C, a Moisture % ([1]; 0 day) of 0.066% and a Total related % ([1]; 0 day) of 0.37%. For the same compound, the Trait ([1]; 0 day) was “Off-white power”, the DSC [1, 2] was 167.46 °C and the Moisture % [1, 2] was 0.092%. The Total related % [1, 2] was 0.38%, the Trait [1, 2] was “Off-white power” and the XRD [1, 2] was “Same as day 0”. The DSC [1, 3] was 167.51 °C, the Moisture % [1, 3] was 0.048% and the Total related % [1, 3] was 0.38%. For the same compound, the Trait [1, 3] was “Off-white power”, the XRD [1, 3] was “Same as day 0” and the DSC ([1]; 40° C., RH 75%, closed, 1 M) was 167.77 °C. The Moisture % ([1]; 40° C., RH 75%, closed, 1 M) was 0.065%, the Total related % ([1]; 40° C., RH 75%, closed, 1 M) was 0.38% and the Trait ([1]; 40° C., RH 75%, closed, 1 M) was “Off-white power”. For the same compound, the XRD ([1]; 40° C., RH 75%, closed, 1 M) was “Same as day 0”, the DSC ([1]; 40° C., RH 75%, opened, 1 M) was 167.75 °C and the Moisture % ([1]; 40° C., RH 75%, opened, 1 M) was 0.12%. The Total related % ([1]; 40° C., RH 75%, opened, 1 M) was 0.39%, the Trait ([1]; 40° C., RH 75%, opened, 1 M) was “Off-white power” and the XRD ([1]; 40° C., RH 75%, opened, 1 M) was “Same as day 0”. The DSC ([1]; 60° C., closed, 10 days) was 167.43 °C, the Moisture % ([1]; 60° C., closed, 10 days) was 0.089% and the Total related % ([1]; 60° C., closed, 10 days) was 0.40%. For the same compound, the Trait ([1]; 60° C., closed, 10 days) was “Off-white power”, the XRD ([1]; 60° C., closed, 10 days) was “Same as day 0” and the DSC ([1]; 60° C., opened, 10 days) was 167.41 °C. For the same compound, the Moisture % ([1]; 60° C., opened, 10 days) was 0.079%, the Total related % ([1]; 60° C., opened, 10 days) was 0.41% and the Trait ([1]; 60° C., opened, 10 days) was “Off-white power”. The XRD ([1]; 60° C., opened, 10 days) was “Same as day 0”, the DSC ([1]; 105° C., opened, 5 days) was 167.19 °C and the Moisture % ([1]; 105° C., opened, 5 days) was 0.045%. The Total related % ([1]; 105° C., opened, 5 days) was 0.51%, the Trait ([1]; 105° C., opened, 5 days) was “Off-white power” and the XRD ([1]; 105° C., opened, 5 days) was “Same as day 0”. For the same compound, the DSC ([1]; Avoid light for 18 days) was 167.49 °C, the Moisture % ([1]; Avoid light for 18 days) was 0.048% and the Total related % ([1]; Avoid light for 18 days) was 0.38%. The Trait ([1]; Avoid light for 18 days) was “Off-white power”, the XRD ([1]; Avoid light for 18 days) was “Same as day 0” and the “Stability, testing conclusion” value ([1]; under the above conditions (all placement conditions of the study)) was “relatively stable”.

Reference: US20230271947A1, “SALT AND CRYSTAL FORM OF KETOHEXOKINASE INHIBITOR AND USE THEREOF” (SHANDONG XUANZHU PHARMA CO., LTD., priority 2020, published 2023)
